Source: US20210127678A1, “ESTERS OF HETEROCYCLIC COMPOUNDS HAVING A NEMATOCIDAL ACTIVITY, THEIR AGRONOMIC COMPOSITIONS AND THEIR USE” (ISAGRO, S.P.A., priority 2018, published 2021)

Tests used:
[1] = test system: Meloidogyne sp.; experiment: Determination of nematocidal activity against Meloidogyne sp. on potted cucumbers, cv Chinese Long; assay type: in vivo; details: 30 days after transplantation; for % INFESTED ROOT / ROOT DEVELOPMENT / ALL INDEX scale 0-10: 4,000 g/hectare; for ROOT DEVELOPMENT: 100% = healthy comparative root; for ALL INDEX scale 0-10: Bridge-Page infestation scale
Description: Determination of Nematocidal Activity Against Meloidogyne sp. The tests aimed at testing the nematocidal activity of the product under examination were carried out using inoculae taken from a farming of Meloidogyne sp. maintained on potted tomato and cucumber plants and grown in greenhouses. To carry out the experiments, portions of roots having a good number of galls and soil were taken from the infested pots, in which larvae were present starting from the second stage of age. New pots having a diameter of 15 cm were half filled with sterile soil. The portions of infested roots, previously cleaned up, were placed on the same in order to be able to correctly assess the degree of infestation and ensure that each pot contains the same nematic charge. 200-300 g of infested soil were subsequently added, then covered with a thin layer of sterile soil. The treatment was carried out by pouring 100 ml of solution on the surface of the soil, in which the product to be tested was dissolved. Tomato or cucumber seedlings at the stage of two or three true leaves were transplanted in the pots thus prepared, one or seven days after application. Different cultivars of tomato or cucumber were used, having a different sensitivity to the parasite and different growth times. In particular, a variety of ornamental tomatoes (cv Microtom) was used for assessing the final production, whose seedlings are small in size and are able to reach the ripeness of the fruit in pots and under greenhouse conditions in about two months The containment capacity of the parasite was detected, 30 and 60 days after transplantation, considering the development of the root system (where 100% is the development achieved by the healthy comparative root) and the presence of galls on the roots. This was estimated using the infestation scale proposed by Bridge-Page, according to which the value zero corresponds to 0% of the root affected and the value 10 corresponds to 100% of infested root. […] 2, 4, 12, 13, 17 and the Compound CR1, on cucumbers, cv Chinese Long, at a dose of 4,000 g/hectare, effecting the survey 30 days after transplantation. […] 2, 4, 8, 12, 13, 17, 127, 129 and the Compound CR1, on cucumbers, cv Chinese Long, at doses of 2,000 g/hectare, 1,000 g/hectare and 500 g/hectare effecting the survey 30 days after transplantation.

[2] = test system: cucumbers, cv Chinese Long; experiment: Phytotoxicity on cucumbers, cv Chinese Long (soil treatment of potted plants); assay type: in vivo, cucumber; details: zero=no symptoms, 10=destroyed plant
Description: New pots having a diameter of 15 cm were half filled with sterile soil. The portions of infested roots, previously cleaned up, were placed on the same in order to be able to correctly assess the degree of infestation and ensure that each pot contains the same nematic charge. 200-300 g of infested soil were subsequently added, then covered with a thin layer of sterile soil. The treatment was carried out by pouring 100 ml of solution on the surface of the soil, in which the product to be tested was dissolved. Tomato or cucumber seedlings at the stage of two or three true leaves were transplanted in the pots thus prepared, one or seven days after application. Different cultivars of tomato or cucumber were used, having a different sensitivity to the parasite and different growth times. In particular, a variety of ornamental tomatoes (cv Microtom) was used for assessing the final production, whose seedlings are small in size and are able to reach the ripeness of the fruit in pots and under greenhouse conditions in about two months The product was evaluated considering the possible phytotoxic effects that may compromise the development of the plant (in this case a zero-ten scale was used, according to which zero=no symptoms, 10=destroyed plant) and the effectiveness against nematodes. […] 2, 4, 12, 13, 17 included in general formula (I) and CR1, described in JP 2000038379 instead of the compound having general formula (I).

Row | SMILES | GALL INDEX (scale 0-10) ([1]; dose applied 0.5 kg ai/ha) | WEIGHT OF FRESH PLANT ([1]; dose applied 0.5 kg ai/ha) | GALL INDEX (scale 0-10) ([1]; dose applied 1 kg ai/ha) | WEIGHT OF FRESH PLANT ([1]; dose applied 1 kg ai/ha) | GALL INDEX (scale 0-10) ([1]; dose applied 2 kg ai/ha) | WEIGHT OF FRESH PLANT ([1]; dose applied 2 kg ai/ha) | Phytotoxicity (scale 0-10) [2] | % INFESTED ROOT [1] | ROOT DEVELOPMENT [1] | ALL INDEX scale 0-10 [1]
1 | Cc1cc(C(=O)OCCC(F)=C(F)F)no1 [Comp. Nr. 129] | 3.6 | 25 g | 2.4 | 26 g | 0.9 | 35 g |  |  |  | 
2 | O=C(OCCC(F)=C(F)F)c1csc(C(F)(F)F)n1 [Comp. Nr. 8] | 2.5 | 25 g | 2.3 | 27 g | 1.2 | 37 g |  |  |  | 
3 | O=C(OCCC(F)=C(F)F)c1cncnc1 [Comp. Nr. 127] | 3.4 | 26 g | 2.1 | 29 g | 0.9 | 36 g |  |  |  | 
4 | O=C(OCCC(F)=C(F)F)c1cccnc1 [CR1, pyridyl-3-carboxylate of 3,4,4-trifluoro-3-butenyl, reference compound] | 4.8 | 23 g | 3.5 | 25 g | 2.8 | 30 g | 0 | 8% | 70% | 0.8
5 | O=C(OCCC(F)=C(F)F)c1cccnc1C(F)(F)F [Comp. Nr. 12] | 3.1 | 27 g | 2.9 | 28 g | 2.1 | 31 g | 0 | 0% | 95% | 0
6 | Cn1cc(C(=O)OCCC(F)=C(F)F)c(C(F)F)n1 [Comp. Nr. 13] | 2.1 | 36 g | 1.2 | 38 g | 1.2 | 39 g | 0 | 0% | 95% | 0
7 | Cc1nnc(C(=O)OCCC(F)=C(F)F)s1 [Comp. Nr. 4, 5-methyl-1,3,4-thiadiazole-2-carboxylate of 3,4,4-trifluoro-3-butenyl] | 2.2 | 35 g | 1.9 | 37 g | 1.9 | 34 g | 0 | 3% | 90% | 0.3
8 | Cc1nc(C(F)F)c(C(=O)OCCC(F)=C(F)F)s1 [Comp. Nr. 2, 2-methyl-4-difluoromethyl-thiazole-5-carboxylate of 3,4,4-trifluoro-3-butenyl] | 2.8 | 36 g | 2.6 | 37 g | 1.4 | 35 g | 0 | 3% | 90% | 0.3
9 | O=C(OCCC(F)=C(F)F)c1cn2cc(C(F)(F)F)cc(Cl)c2n1 [Comp. Nr. 17] | 3.3 | 26 g | 2.8 | 28 g | 2.2 | 31 g | 0 | 3% | 85% | 0.3
